≈ marks a conversion by molar mass, not a printed value. Where two headings read alike, the source gives them in different places.
Key:
[1] = tested on: Streptococcus pyogenes 308A; test: In vitro anti-bacterial activity test (MIC, two-fold agar dilution); type: cell-based; details: Mueller-Hinton agar, 10⁷ CFU/mℓ, 37°C, 18 hours, read-out: MIC
[2] = tested on: Streptococcus pyogenes 77A; test: as above; type: cell-based; details: Streptococcus pyogenes 77A; Mueller-Hinton agar, 10⁷ CFU/mℓ, 37°C, 18 hours; read-out: MIC
[3] = tested on: Streptococcus faecium MD 8b; test: as above; type: cell-based; details: Enterococcus faecium, MD8B; Streptococcus faecium MD 8b; Mueller-Hinton agar, 10⁷ CFU/mℓ, 37°C, 18 hours; read-out: MIC
[4] = tested on: Staphylococcus aureus SG 511; test: as above; type: cell-based; details: SG511; Staphylococcus aureus SG 511; Mueller-Hinton agar, 10⁷ CFU/mℓ, 37°C, 18 hours; read-out: MIC
[5] = tested on: Staphylococcus aureus 285; test: as above; type: cell-based; details: Staphylococcus aureus 285; Mueller-Hinton agar, 10⁷ CFU/mℓ, 37°C, 18 hours; read-out: MIC
[6] = tested on: Staphylococcus aureus 503; test: as above; type: cell-based; details: Staphylococcus aureus 503; Mueller-Hinton agar, 10⁷ CFU/mℓ, 37°C, 18 hours; read-out: MIC
Escherichia coli O 55 = test: as above; type: cell-based; details: O55, Mueller-Hinton agar, 10⁷ CFU/mℓ, 37°C, 18 hours, read-out: MIC
Escherichia coli DC 0 = test: as above; type: cell-based; details: DC0, Mueller-Hinton agar, 10⁷ CFU/mℓ, 37°C, 18 hours, read-out: MIC
Escherichia coli DC 2 = test: as above; type: cell-based; details: DC2, Mueller-Hinton agar, 10⁷ CFU/mℓ, 37°C, 18 hours, read-out: MIC
Escherichia coli OTEM = test: as above; type: cell-based; details: Mueller-Hinton agar, 10⁷ CFU/mℓ, 37°C, 18 hours, read-out: MIC
Escherichia coli 1507E = test: as above; type: cell-based; details: Mueller-Hinton agar, 10⁷ CFU/mℓ, 37°C, 18 hours, read-out: MIC
[7] = tested on: Pseudomonas aeruginosa 9027; test: as above; type: cell-based; details: Pseudomonas aeruginosa 9027; Mueller-Hinton agar, 10⁷ CFU/mℓ, 37°C, 18 hours; read-out: MIC
[8] = tested on: Pseudomonas aeruginosa 1592E; test: as above; type: cell-based; details: Mueller-Hinton agar, 10⁷ CFU/mℓ, 37°C, 18 hours, read-out: MIC
[9] = tested on: Pseudomonas aeruginosa 1771; test: as above; type: cell-based; details: Pseudomonas aeruginosa 1771; Mueller-Hinton agar, 10⁷ CFU/mℓ, 37°C, 18 hours; read-out: MIC
[10] = tested on: Pseudomonas aeruginosa 1771M; test: as above; type: cell-based; details: 18 h
Salmonella typhimurium = test: as above; type: cell-based; details: Salmonella enterica, Mueller-Hinton agar, 10⁷ CFU/mℓ, 37°C, 18 hours, read-out: MIC
[11] = tested on: Klebsiella aerogenes 1082E; test: as above; type: cell-based; details: Mueller-Hinton agar, 10⁷ CFU/mℓ, 37°C, 18 hours, read-out: MIC
[12] = tested on: Klebsiella aerogenes 1522E; test: as above; type: cell-based; details: Mueller-Hinton agar, 10⁷ CFU/mℓ, 37°C, 18 hours, read-out: MIC
Enterobacter cloacae P99 = test: as above; type: cell-based; details: Mueller-Hinton agar, 10⁷ CFU/mℓ, 37°C, 18 hours, read-out: MIC
[13] = tested on: Enterobacter cloacae 1321E; test: as above; type: cell-based; details: Mueller-Hinton agar, 10⁷ CFU/mℓ, 37°C, 18 hours, read-out: MIC
P. mirabilis = test: Preventive effect on the systemic infection; type: in vivo; details: Proteus mirabilis, in Mus musculus, P. mirabilis intraperitoneal infection, NMRI mice, survival on day 7, probit analysis, read-out: ED₅₀
Protocol: (§1) 10 fold of the pathogen which leads to 100% lethality were injected intraperitoneally to male and female NMRI mice weighing 18 to 20g. Immediately and after 4 hours, the dose of test compounds which was determined by two-fold serial dilution method was administered orally or subcutaneously; and on day 7, the effectiveness was evaluated in terms of ED₅₀ calculated from the number of survived mice by the probit analysis.

S. aureus 17740 = test: Preventive effect on the systemic infection; type: in vivo; details: Staphylococcus aureus, 17740, in Mus musculus, S. aureus 17740 intraperitoneal infection, NMRI mice, survival on day 7, probit analysis, read-out: ED₅₀
Protocol: as §1

in vivo = details: female, ICR, mouse
Protocol: Test compounds were administered to female ICR mice weighing 20 to 25g and on day 14, LD₅₀ was calculated from the number of survived mice by the probit analysis.

[14] = Oral Administration immediately and after 4 hours
[15] = Subcutaneous Injection immediately and after 4 hours

| Compound | MIC [1] | MIC [2] | MIC [3] | MIC [4] | MIC [5] | MIC [6] | MIC (Escherichia coli O 55) | MIC (Escherichia coli DC 0) | MIC (Escherichia coli DC 2) | MIC (Escherichia coli OTEM) | MIC (Escherichia coli 1507E) | MIC [7] | MIC [8] | MIC [9] | MIC [10] | MIC (Salmonella typhimurium) | MIC [11] | MIC [12] | MIC (Enterobacter cloacae P99) | MIC [13] | further results |
| --- | --- | --- | --- | --- | --- | --- | --- | --- | --- | --- | --- | --- | --- | --- | --- | --- | --- | --- | --- | --- | --- |
| NC1CCC2=C1CN(c1c(F)cc3c(=O)c(C(=O)O)cn(C4CC4)c3c1F)C2 (centres unmarked) [Example 1, 7-[6-amino-3-azabicyclo[3,3,0]oct-1(5)ene-3-yl]-1-cyclopropyl-6,8-difluoro-1,4-dihydro-4-oxoquinoline-3-carboxylic acid] | 0.391 µg/mL (≈ 1.01 µM) | 0.098 µg/mL (≈ 0.253 µM) | 0.098 µg/mL (≈ 0.253 µM) | 0.098 µg/mL (≈ 0.253 µM) | 0.098 µg/mL (≈ 0.253 µM) | 0.049 µg/mL (≈ 0.126 µM) | 0.025 µg/mL (≈ 0.0645 µM) | 0.391 µg/mL (≈ 1.01 µM) | 0.098 µg/mL (≈ 0.253 µM) | 0.049 µg/mL (≈ 0.126 µM) | 0.049 µg/mL (≈ 0.126 µM) | 1.56 µg/mL (≈ 4.03 µM) | 1.56 µg/mL (≈ 4.03 µM) | 1.56 µg/mL (≈ 4.03 µM) | 0.391 µg/mL (≈ 1.01 µM) | 0.049 µg/mL (≈ 0.126 µM) | 0.007 µg/mL (≈ 0.0181 µM) | 0.098 µg/mL (≈ 0.253 µM) | 0.098 µg/mL (≈ 0.253 µM) | 0.025 µg/mL (≈ 0.0645 µM) | ED50 (P. mirabilis; [14]): 5.5 mg/kg; ED50 (P. mirabilis; [15]): 1.55 mg/kg; ED50 (S. aureus 17740; [14]): 105 mg/kg; ED50 (S. aureus 17740; [15]): 25 mg/kg; LD50 at 14 day (in vivo; ip): 720 mg/kg; LD50 at 14 day (in vivo; po): 4000 mg/kg |
| CNC1CCC2=C1CN(c1c(F)cc3c(=O)c(C(=O)O)cn(C4CC4)c3c1F)C2 (centres unmarked) [Example 2, 1-cyclopropyl-6,8-difluoro-7-[6-methylamino-3-azabicyclo[3,3,0]oct-1(5)ene-3-yl]-1,4-dihydro-4-oxoquinoline-3-carboxylic acid] | 0.195 µg/mL (≈ 0.486 µM) | 0.098 µg/mL (≈ 0.244 µM) | 0.098 µg/mL (≈ 0.244 µM) | 0.049 µg/mL (≈ 0.122 µM) | 0.098 µg/mL (≈ 0.244 µM) | 0.049 µg/mL (≈ 0.122 µM) | 0.013 µg/mL (≈ 0.0324 µM) | 0.781 µg/mL (≈ 1.95 µM) | 0.098 µg/mL (≈ 0.244 µM) | 0.098 µg/mL (≈ 0.244 µM) | 0.098 µg/mL (≈ 0.244 µM) | 3.12 µg/mL (≈ 7.78 µM) | 1.56 µg/mL (≈ 3.89 µM) | 1.56 µg/mL (≈ 3.89 µM) | 0.781 µg/mL (≈ 1.95 µM) | 0.391 µg/mL (≈ 0.974 µM) | 0.013 µg/mL (≈ 0.0324 µM) | 0.049 µg/mL (≈ 0.122 µM) | 0.049 µg/mL (≈ 0.122 µM) | 0.013 µg/mL (≈ 0.0324 µM) | ED50 (S. aureus 17740; [14]): 112 mg/kg; ED50 (S. aureus 17740; [15]): 27 mg/kg; LD50 at 14 day (in vivo; ip): 810 mg/kg; LD50 at 14 day (in vivo; po): 4100 mg/kg |
| NC1CCC2=C1CN(c1c(F)cc3c(=O)c(C(=O)O)cn(C4CC4)c3c1Cl)C2 (centres unmarked) [Example 3, 7-[6-amino-3-azabicyclo[3,3,0]oct-1(5)ene-3-yl]-1-cyclopropyl-8-chloro-6-fluoro-1,4-dihydro-4-oxoquinoline-3-carboxylic acid] | 0.195 µg/mL (≈ 0.483 µM) | 0.049 µg/mL (≈ 0.121 µM) | 0.098 µg/mL (≈ 0.243 µM) | 0.025 µg/mL (≈ 0.0619 µM) | 0.049 µg/mL (≈ 0.121 µM) | 0.049 µg/mL (≈ 0.121 µM) | 0.049 µg/mL (≈ 0.121 µM) | 0.781 µg/mL (≈ 1.93 µM) | 0.049 µg/mL (≈ 0.121 µM) | 0.098 µg/mL (≈ 0.243 µM) | 0.098 µg/mL (≈ 0.243 µM) | 1.56 µg/mL (≈ 3.87 µM) | 1.56 µg/mL (≈ 3.87 µM) | 1.56 µg/mL (≈ 3.87 µM) | 0.391 µg/mL (≈ 0.968 µM) | 0.049 µg/mL (≈ 0.121 µM) | 0.013 µg/mL (≈ 0.0322 µM) | 0.195 µg/mL (≈ 0.483 µM) | 0.098 µg/mL (≈ 0.243 µM) | 0.098 µg/mL (≈ 0.243 µM) | ED50 (P. mirabilis; [14]): 5.9 mg/kg; ED50 (P. mirabilis; [15]): 1.43 mg/kg; LD50 at 14 day (in vivo; ip): 731 mg/kg; LD50 at 14 day (in vivo; po): 4100 mg/kg |

From patent EP0549857A1, “Antibacterial quinolone carboxylic acid derivatives” (KOREA RESEARCH INSTITUTE OF CHEMICAL TECHNOLOGY, priority 1991, dated 1993)
